Results taken from US6660769B1, “N substituted 3-amino-2,2-di-c-alkyl-1,4-butyrolactones and 1,4-thiobutyrolactones for use as promoter of γ-aminobutyric acid activity and for treating nervous disorders and preparation method” (priority 1999, dated 2003).

What was measured:
[1] = target: T1, α1β2γ2 recombinant GABA-A receptors (Homo sapiens, UniProt P14867+P18507+P47870); assay: cell-based; conditions: α1β2γ2
T1 construct: expressed in transfected cells; host or cells: Xenopus laevis oocytes injected with cRNA
T1 sequence (P47870 25-512 limits assumed, one chain of several): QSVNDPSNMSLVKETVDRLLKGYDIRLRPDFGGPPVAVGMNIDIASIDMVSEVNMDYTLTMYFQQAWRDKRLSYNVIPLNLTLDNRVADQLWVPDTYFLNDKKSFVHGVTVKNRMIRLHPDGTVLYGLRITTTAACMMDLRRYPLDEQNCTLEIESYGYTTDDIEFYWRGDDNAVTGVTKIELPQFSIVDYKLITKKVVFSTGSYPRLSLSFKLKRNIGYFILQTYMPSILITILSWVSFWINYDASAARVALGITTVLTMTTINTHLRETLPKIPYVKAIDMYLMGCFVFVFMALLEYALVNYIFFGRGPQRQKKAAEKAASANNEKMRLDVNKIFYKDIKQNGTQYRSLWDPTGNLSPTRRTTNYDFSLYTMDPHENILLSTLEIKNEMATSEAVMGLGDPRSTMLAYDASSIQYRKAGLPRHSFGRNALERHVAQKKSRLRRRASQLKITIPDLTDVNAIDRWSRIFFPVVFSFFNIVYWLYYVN
T1 sequence (P18507 40-475, one chain of several): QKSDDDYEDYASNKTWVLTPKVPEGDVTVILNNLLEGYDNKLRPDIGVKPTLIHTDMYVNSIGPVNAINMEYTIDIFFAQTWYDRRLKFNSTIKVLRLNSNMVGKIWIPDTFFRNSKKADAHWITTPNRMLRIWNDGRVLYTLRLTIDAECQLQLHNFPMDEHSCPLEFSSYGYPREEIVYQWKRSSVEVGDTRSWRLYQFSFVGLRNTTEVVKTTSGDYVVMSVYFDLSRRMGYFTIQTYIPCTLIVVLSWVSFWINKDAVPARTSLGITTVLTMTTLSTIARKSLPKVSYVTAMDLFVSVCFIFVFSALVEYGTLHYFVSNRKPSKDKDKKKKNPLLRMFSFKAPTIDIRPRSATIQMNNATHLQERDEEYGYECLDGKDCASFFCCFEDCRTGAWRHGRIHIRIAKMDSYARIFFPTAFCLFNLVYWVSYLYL

[2] = target: T2, α1β1 GABA-A recombinant receptors (Homo sapiens, UniProt P14867+P18505); assay: Two-electrode voltage clamp, modulation of GABA currents in Xenopus oocytes; assay type: cell-based
T2 construct: expressed in transfected cells; host or cells: Xenopus laevis oocytes injected with cRNA
T2 sequence (P14867 28-456): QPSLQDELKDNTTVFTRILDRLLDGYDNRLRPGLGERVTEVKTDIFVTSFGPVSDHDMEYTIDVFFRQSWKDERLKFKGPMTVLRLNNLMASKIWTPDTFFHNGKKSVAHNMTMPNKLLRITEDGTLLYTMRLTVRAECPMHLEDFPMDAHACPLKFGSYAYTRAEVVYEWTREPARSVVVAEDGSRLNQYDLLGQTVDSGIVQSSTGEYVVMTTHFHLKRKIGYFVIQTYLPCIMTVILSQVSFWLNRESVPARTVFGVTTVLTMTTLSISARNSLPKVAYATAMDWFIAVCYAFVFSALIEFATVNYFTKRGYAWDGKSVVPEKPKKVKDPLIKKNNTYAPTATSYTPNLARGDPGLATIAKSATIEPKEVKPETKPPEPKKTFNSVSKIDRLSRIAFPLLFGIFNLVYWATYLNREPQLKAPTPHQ
T2 sequence (P18505 26-474): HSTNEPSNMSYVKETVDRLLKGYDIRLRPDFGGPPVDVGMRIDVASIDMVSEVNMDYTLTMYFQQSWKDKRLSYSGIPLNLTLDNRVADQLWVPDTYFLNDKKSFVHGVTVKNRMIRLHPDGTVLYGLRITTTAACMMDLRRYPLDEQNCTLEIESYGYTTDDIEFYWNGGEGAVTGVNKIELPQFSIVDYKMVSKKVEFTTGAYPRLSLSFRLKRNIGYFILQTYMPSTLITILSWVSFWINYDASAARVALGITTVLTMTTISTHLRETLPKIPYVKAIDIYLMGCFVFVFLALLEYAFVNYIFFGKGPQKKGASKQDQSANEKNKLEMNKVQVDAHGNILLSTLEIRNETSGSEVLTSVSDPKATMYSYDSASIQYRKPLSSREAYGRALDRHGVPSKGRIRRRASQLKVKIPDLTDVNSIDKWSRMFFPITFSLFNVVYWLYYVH
Protocol: (§1) The compounds synthesized are also studied for their ability to cause opening of the channel of the GABA-A receptor or to allosterically modulate the currents caused by GABA. For this purpose, the GABA-A recombinant receptors are expressed in Xenopus oocytes. Briefly, Xenopus laevis oocytes are prepared, injected and defolliculated and the currents are recorded in the way described (E. Sigel, J. Physiol., 1987, 386, 73 and E. Sigel, R. Baur, G. Trube, H. Möhler, P. Malherbe, Neuron, 1990, 5, 703). The oocytes are injected with 50 nl of cRNA dissolved in 5 mM of K-Hepes (pH 6.8). This solution comprises the transcripts coding for the various subunits at a concentration of 10 nM for α1, 10 nM for β2 and 50 nM for γ2. The RNA transcripts are synthesized from linearized plasmids encoding the desired protein using the message machine kit (Ambion) according to the recommendations of the manufacturers. A poly(A) tail of approximately 300 residues is added to the transcripts using yeast poly(A) polymerase (USB or Amersham). The cRNA combinations are coprecipitated from ethanol and stored at −20° C. The transcripts are quantified on agarose gels, after having been stained with the RNA stain Radiant Red (Bio-Rad), by comparing the intensities of the stainings with various amounts of molecular weight markers (RNA-Ladder, Gibco-BRL). The electrophysiological experiments are carried out by the two-electrode voltage clamp method at a holding potential of −80 mV. The medium comprises 90 mM of NaCl, 1 mM of KCl, 1 mM of MgCl2, 1 mM of CaCl2 and 10 mM of Na-Hepes (pH 7.4). GABA is applied for 20 s and a washing period of 4 min is allowed in order to provide for the complete […]. The perfusion system is cleaned between the applications of the compounds by washing with dimethyl sulfoxide to prevent contamination. The compounds are applied at a concentration of 100 microM in the absence of GABA in order to see whether they can act as channel agonists. To study the allosteric modulation, GABA is first of all applied alone and then in combination with either […] or 100 microM of compounds.
(§2) Thus, it is observed that the compound R-30 (100 μM) produces a 5 times greater stimulation of the GABA currents in the receptors comprising the β2 subunits with respect to the receptors carrying only the β1 subunit (table 4). At 10 μM, the compound R-30 produces a stimulation only in the receptors comprising the β2 subunit. The anticonvulsant loreclezole similarly enhances the activity of the GABA-A receptor by interacting with a site present on the receptors comprising the β2 subunit (and the β3 subunit) but not present on the receptors comprising the β1 subunit (P. B. Wingrove, K. A. Wafford, C. Bain, P. J. Whiting, Proc. Natl. Acad. Sci. USA, 1994, 91, 4569). […] The compounds of the present invention therefore appear to stimulate the activity of GABA by acting on a different site from that of α-EMTBL and related compounds, despite the apparent structural resemblance of these two classes of compounds.

[3] = tested on: α2β2 GABA-A recombinant receptors; assay: as above; assay type: cell-based; conditions: for % of stimulation of the GABA currents: α2β2
Protocol: as §1, §2

[4] = tested on: GABA-A receptors comprising β2 or β3 subunits versus β1 subunit; conditions: Wingrove et al. 1994; cited from earlier work

Molecule	% of stimulation of the GABA currents ([1]; 10 μM)	% of stimulation of the GABA currents ([1]; 100 μM)	power relative to the corresponding S isomer in stimulating GABA currents [1]	% of stimulation of the GABA currents ([2]; 10 μM) [%]	% of stimulation of the GABA currents ([2]; 100 μM)	% of stimulation of the GABA currents ([3]; 10 μM)	times greater stimulation of the GABA currents in receptors comprising β2 subunits with respect to β1 only ([3]; 100 μM) [times]	% of stimulation of the GABA currents ([3]; 100 μM)	affinity for receptors comprising β2 or β3 subunits relative to receptors comprising the β1 subunit [4] [times]
3-(R)-Benzyloxycarbonylamino-3,3-di(C-propyl)-1,4-butyrolactone [Compound R-30]	+51 ± 94%	+279 ± 94%	twice as powerful	−5 ± 11	+92 ± 28%	+78 ± 4%	5	+588 ± 166%	
Cl/C(=C\n1cncn1)c1ccc(Cl)cc1Cl [loreclezole]									300
